Measurements: patent US10022342B2, “Methods and compositions for treating multiple myeloma” (Ohio State Innovation Foundation, priority 2015, dated 2018)

Columns and labels:
Assay type in all cases: cell-based, human
[1] = tested on: MM cell lines (MM.1S, U266, RPMI-8226, MM.1R); assay: Annexin V-PI apoptosis, single-agent AR-42 in MM cell lines; conditions: 0.1 μM, 24-hr; all MM cell lines tested
Method: Growth inhibitory and pro-apoptotic properties of AR-42 as a single agent treatment agent have been reported previously in numerous malignancies, including MM. Because of the potent immunomodulatory effects observed with classical pan-HDACi's, immunology-related gene networks altered upon AR-42 treatment in MM cells were investigated using nCounter technology to analyze the effects of AR-42 on the expression of 511 human genes in MM.1S cells following 24-hr treatment with 0.1 μM AR-42.
(§1) CD44 surface expression was analyzed by staining cells with CD44-FITC antibody (BD Biosciences) for 30 min. in the dark, at room temperature. Apoptosis was measured by Annexin V-FITC and Propidium Iodide (PI) (Clontech) staining for 15 min. in the dark, at room temperature and data immediately acquired on a Beckman Coulter FC500 (Beckman Coulter) machine. Analysis was conducted using the FlowJo Software vX.0.7 (Tree Star Inc.). For the multiparametric analysis, the bone marrow samples were stained with CD38-PE (347687; BD Bioscience), CD138-APC (347193; BD Bioscience), CD45-ECD (A07784; Beckman Coulter), CD44-FITC (BD Bioscience) and AnnexinV-FITC (Clontech) for 30 minutes, washed with PBS and immediately analyzed with Gallios cytometer (Beckman Coulter).

CD44 [2] = assay: CD44 cell surface expression by flow cytometry in MM cell lines
Method: The down-regulation of CD44 cell surface expression was also observed by flow cytometry in all MM cell lines tested expressing detectable CD44 levels (FIG. 1D, FIGS. 2E-2F and data not shown).
as §1

CD44 3′UTR element = assay: CD44 3'UTR luciferase reporter assay in MM.1S cells; conditions: 0.2 μM, 24 hours, vs untreated cells
Method: To address the molecular mechanism(s) responsible for downregulation of CD44 gene, the potential role of one or more cis regulatory regions was considered. […] The CD44 3′UTR element was subcloned downstream from the SV40 promoter-driven luciferase gene and transiently transfected the resulting reporter plasmid into MM.1S cells. Incubation of these cells with 0.2 μM AR-42 for 24 hours decreased luciferase activity detecting the activity of the CD44 3′UTR element by 35% as compared to untreated cells (FIG. 5A).
(Forward) 5′-gctagc[…]-3′ (SEQ ID NO: 1) and 5′- gctagc[…]-3′ (SEQ ID NO: 2) (engineered Nhel sites are in lower case), and the products were cloned into Xbal site downstream from the luciferase gene in pGL3-control vector (Promega). To generate IGF2BP3 luciferase reporter constructs, the 3′UTR was amplified by PCR using primers: (Forward) 5′-[…]-3′ (SEQ ID NO: 3) and (Reverse) 5′-[…]-3′ (SEQ ID NO: […]), and cloned into Xbal site of pGL3-control vector (Promega). Mutations in the miR-9-5p binding site of the IGF2BP3 3′UTR were introduced by the QuikChange Mutagenesis Kit (Stratagene) and the following primers:
Hela and 293T cells were transfected with 500 ng of 3′UTR-pGL3-control plasmid and 50 ng of Renilla luciferase expression construct (pRL-TK; Promega), using Lipofectamine 2000 (Invitrogen). […]

miR-9-5p = miR-9-5p expression by stem loop qRT-PCR; conditions: 24 hours, dose dependent, vs control
Method: 51 miRNAs were differentially expressed between the two groups.
(§2) Quantitative real time-PCR (qRT-PCR) was performed with the TaqMan method (Applied Biosystems), according to the manufacturer's instructions, and analyzed with the 7900HT Sequence Detection System (Applied Biosystems). The appropriate TaqMan probes for mRNA, miRNA, and pri-miRNA quantification were purchased from Applied Biosystems, and all reactions were performed in triplicate. The following probes were used: hsa-miR-9-5p (000583), hsa-mir-9-1 (Hs03303201_pri), hsa-miR-9-2 (Hs03303202_pri), hsa-mir-9-3 (Hs03293595_pri), CD44 (Hs01075861_ml), IGF2BP3 (Hs00559907_g1). Simultaneous quantification of ornithine decarboxylase antizyme 1 (OAZ1), or GAPDH mRNAs were used as a reference for mRNA data normalization, while small endogenous nucleolar RNA U44/U48, or U6 were used for miRNA normalization. The relative expression levels were calculated by the comparative cycle threshold (Ct) method (User Bulletin #2; Applied Biosystems). Expression analyses of pre-miRNA was performed with SYBR green PCR master mix (Applied Biosystems) and normalized for U6 RNA. All primers used for amplification steps are listed in the Supplementary materials and methods.

[3] = tested on: pri-miR-9-1, pri-miR-9-2, pri-miR-9-3; assay: pri-miR-9 primary transcripts by qRT-PCR in MM.1S cells; conditions: vs controls
Method: Because human miR-9-5p is encoded by three distinct genomic loci (i.e., primary (pri)-miR-9-1 on chromosome 1 (q22), pri-miR-9-2 on chromosome 5 (q14.3), and pri-miR-9-3 on chromosome 15 (q26.1)), the identity of the locus responsible for miR-9up-regulation in response to AR-42 was investigated.
as §2, with “All primers used for amplification steps are listed in the Supplementary materials and methods.” left out

CD44 [4] = assay: CD44 expression in whole bone marrow of MM patients by flow cytometry; conditions: 24 hrs; all 5 Len-refractory and 2 of the 3 newly diagnosed MM patients
Method: Since MM cell survival is strongly dependent on microenvironment, the effects of AR-42 in combination with Len on MM cell killing in the context of the bone marrow (BM) milieu was examined. Total BM samples obtained from 5 Len-refractory MM (patients 1, 2, 3, 4, and 7) and 3 newly diagnosed MM patients (patients 5, 6, and 8) were treated with AR-42 (0.2 μM) and Len (5 μM) as single agents, and in combination. […] The BM cells from the same patients were used to assess CD44 expression at 24 hrs after AR-42 treatment.
as §1
Mouse data were evaluated by ANOVA, and synergy between AR-42 and Len was tested by interaction contrast. […]

[5] = tested on: U266, RPMI, and MM1S cells; assay: Apoptosis (annexin) and necrosis (propidium iodide) by HDAC inhibitors, FIG. 15; conditions: 24 and 48 hours, 0.25, 0.5, and 1 μM
Method: Apoptosis was measured by annexin staining while cell necrosis was measured by propidium iodide staining.
as §1

CC(C)[C@H](C(=O)Nc1ccc(C(=O)NO)cc1)c1ccccc1 [AR-42, (S)-N-hydroxy-4-(3-methyl-2-phenylbutanamido)benzamide]
apoptosis by Annexin V-PI staining [1]: without significant increase of apoptosis | CD44 cell surface expression (CD44 [2]; all MM cell lines tested expressing detectable CD44): down-regulation | CD44 downregulation compared to other HDACi's (CD44 [2]; at comparable IC50 concentrations, vs SAHA, LBH589, JQ12): greater CD44 downregulation | decrease of luciferase activity of the CD44 3′UTR element (CD44 3′UTR element): 35% | miR-9-5p expression levels (miR-9-5p): increased | primary transcripts of miR-9-5p [3]: dose dependent changes | CD44 expression in whole BM (CD44 [4]): Downregulation | apoptosis (annexin staining) [5]: highest level of apoptosis | cell necrosis (propidium iodide staining) [5]: lowest levels of cell necrosis
